Data as given in US10697024B2, “Methods of determining IMiDS resistance in plasma cell disorders” (The Charlotte Mecklenburg Hospital Authority, priority 2016, dated 2020).

test system: CD138-purified plasma cells; assay: GEP-based pharmacogenomics of paired plasma cells prior to and 48 hours after an IMiD test dose; type: in vivo, human; conditions: MM patients, bone marrow plasma cells, 48 hr after test dose vs. baseline, SAM analysis; Affymetrix U95Av2 (thalidomide 400 mg/d, lenalidomide 25 to 50 mg/d) or U133Plus2.0 (pomalidomide 4 mg/d)
Description: GEP-based pharmacogenomics of paired CD138-purified plasma cells, obtained from patients prior to and 48 hours after administration of test doses of Thal (42 newly diagnosed MM), Len (18 relapsed/refractory MM), or Pom (18 relapsed/refractory MM) were compared using significance analysis of microarrays (SAM).
Plasma cell purifications and GEP, using the Affymetrix U133 Plus 2.0 microarray, were performed as previously described (Ref: Zhan F, Huang Y, Colla S, et al. The molecular classification of multiple myeloma. Blood. 2006; 108:2020-2028.). Samples were hybridized to Affymetrix expression arrays. Affymetrix U133Plus2.0 arrays were used in the pomalidomide study and Affymetrix U95Av2 arrays were used for thalidomide and lenalidomide pharmacogenomics studies. Bone marrow samples from MM patients enrolled in pharmacogenomics study were obtained prior to, and 48 hours after administration of a test dose of thalidomide (n=42 newly diagnosed), lenalidomide (n=18 relapsed/refractory) or pomalidomide (n=18 relapsed refractory). Plasma cell isolation from mononuclear cell fraction was performed by immunomagnetic bead selection with monoclonal anti-human CD138 antibody using the AutoMACS automated separation system (Miltenyi-Biotec) as previously described. Isolated bone marrow plasma cells were processed and analyzed for Gene-expression profiling (GEP) according to previously reported methods. Samples were hybridized to an Affymetrix U133Plus2.0 microarray for pomalidomide study and to an Affymetrix U95Av2 microarray for thalidomide and lenalidomide studies according to the manufacturer's recommendations and then read on GeneChip Scanner 3000 (Affymetrix). The data files were deposited in the ArrayExpress archive under the accession number E-TABM-1138. […]

Structure (SMILES) | Probe sets changed (p < 0.05) after 48 hr of IMiD treatment
Nc1cccc2c1CN(C1CCC(=O)NC1=O)C2=O (stereo not drawn) [Lenalidomide, lenalidomide] | 1304
Nc1cccc2c1C(=O)N(C1CCC(=O)NC1=O)C2=O (stereo not drawn) [Pomalidomide, pomalidomide] | 4944
O=C1CCC(N2C(=O)c3ccccc3C2=O)C(=O)N1 (stereo not drawn) [Thalidomide, thalidomide] | 1398
